US20130150384A1, “METHOD FOR TREATMENT OF BRAIN CANCERS” (KOREA INSTITUTE OF SCIENCE AND TECHNOLOGY, priority 2008, published 2013)
Entries after “also recorded” stand apart in the source; their conditions may differ.

Assays:
GBM cells = experiment: Ca^2+ imaging of Fura2-AM loaded GBM cells; type: cell-based, human
Text: Error bars represent SEM.
It is hypothesized that these molecules existing in the Ca^2+ release pathway serve as a potential molecular target in controlling migration and invasion of GBM.

glioma = experiment: Soft agar assay (colony formation); type: cell-based, human; conditions: 0.5, 1, 2, 5, or 10 mM caffeine, 14 to 17 days
Experimental: Cells (1×10^4) were seeded into 6-well plates in a soft agar (0.3%, Difco) overlaying a 0.6% base agar. […] Cells were incubated at 37 for 14 to 17 days to allow colonies to develop. Afterward colonies were stained with 0.05% cresyl violet and photographed. […] Each assay was done in triplicate (n=3)

[1] = system: human cell line (SH-SY5Y, ATCC); experiment: Block against bradykinin-induced intracellular Ca^2+ release in human glioblastoma cell line; type: cell-based; conditions: 10 mM caffeine, 10 μM bradykinin
HEK293T cell line = experiment: Block against TFLLR-induced intracellular Ca^2+ release in HEK293T; type: cell-based; conditions: 10 mM caffeine, 30 μM TFLLR
U87MG cells = experiment: Xenograft tumor growth assay; type: in vivo, athymic mice (Balb/c nu/nu); conditions: caffeine 1 mg/ml in drinking water from day 7, subcutaneous U87MG, 4 weeks
Experimental: Five-week-old athymic mice (Balb/c nu/nu) were obtained from Central Lab. Animal Inc. (Japan). For the xenograft tumor growth assay, U87MG cells (3×10^5 cells/150 ul PBS) were injected subcutaneously into the right flanks of the mice (n=5 to 10 mice per group), and the experiment was conducted in triplicate. […] The control animals were given distilled water. Tumor mass was estimated twice per week for 4 weeks, and tumor volumes were calculated by the formula: […]

human U87MG = experiment: Survival in orthotropic implantation model; conditions: 1 mg/ml caffeine containing drinking water, intracranial U87MG

## C/C=C(/C)C(=O)O[C@H]1C(C)=C2[C@H]([C@@H]1OC(=O)CCCCCCC)[C@@](C)(OC(C)=O)C[C@H](OC(=O)CCC)[C@@]1(O)[C@H]2OC(=O)[C@@]1(C)O [thapsigargin]
GBM cells
  subsequent increase in [Ca^2+]i by bradykinin after store depletion: completely inhibited

## COc1ccc2c(c1)CC[C@@H]1[C@@H]2CC[C@]2(C)[C@@H](NCCCCCCN3C(=O)C=CC3=O)CC[C@@H]12 [U73122]
GBM cells
  release of Ca^2+ from intracellular stores in response to activation of GPCRs and RTKs: completely inhibited

## Cn1c(=O)c2c(ncn2C)n(C)c1=O [caffeine]
glioma
  proliferation / anchorage-independent growth (colony numbers): reduced the anchorage-independent growth of glioma in vitro, in a dose dependent manner; also recorded: significantly inhibited
[1]
  intracellular Ca^2+ release: blocked
HEK293T cell line
  intracellular Ca^2+ release: blocked
U87MG cells
  increase of tumor mass: significantly inhibited
Human U87MG
  survival rate: significantly increase the survival rate
